Earlier results in US5770699A, “Process for production of inhibited forms of activated blood factors” (COR Therapeutics, Inc., priority 1996, dated 1998).

Target: Factor Xa
Conditions: transient (reversible) inhibition of Factor Xa; stated as known; cited from earlier work

In the case of N=C(N)c1ccc2oc(CCc3cc4cc(C(=N)N)ccc4o3)cc2c1 [1,2-bis(5-amidino 2-benzofuranyl) ethane], the Ki is listed as 570 nM.
